Measured values taken from patent US8163909B2, “Substituted hydroxyethyl amine compounds as beta-secretase modulators and methods of use” (Amgen Inc., priority 2007, dated 2012).
Like-named read-outs stand apart in the source and are kept apart here.

Columns and labels:
[1] = biological target: Beta Secretase enzyme (BACE) (Homo sapiens, UniProt P56817); assay: In vitro enzymatic BACE FRET (fluorescence resonance energy transfer) assay; format: biochemical;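 also: fluorescence read after 1 h with 50 nM quenched peptide substrate spanning the BACE cleavage site, in pH 4.2 acetate buffer containing 10% DMSO and nonionic detergent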
[2] = test system: Aβ40 in conditioned medium of cells stably expressing Amyloid Precursor Protein (APP); assay: In vitro BACE cell-based assay (Aβ40 in conditioned medium, sandwich ELISA);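 also: compounds added as a dilution series, secreted peptide quantified by europium time-resolved fluorescence readout, potency fitted from percent of control versus compound concentration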
[3] = BACE enzyme FRET assay, read-out: BACE1 FRET assay (IC50)
[4] = Homo sapiens, HEK293, HEK cells, cell-based assay, read-out: HEK cell assay (IC50)
[5] = BACE enzyme assay, read-out: BACE1 FRET assay (IC50)
[6] = Table 2, read-out: BACE1 FRET assay
[7] = Homo sapiens, HEK293, Table 2, HEK cells, read-out: HEK cell assay
[8] = Table 1, read-out: BACE1 FRET assay
[9] = Homo sapiens, HEK293, Table 1, HEK cells, read-out: HEK cell assay

Beta Secretase enzyme (BACE), sequence (P56817 46-501): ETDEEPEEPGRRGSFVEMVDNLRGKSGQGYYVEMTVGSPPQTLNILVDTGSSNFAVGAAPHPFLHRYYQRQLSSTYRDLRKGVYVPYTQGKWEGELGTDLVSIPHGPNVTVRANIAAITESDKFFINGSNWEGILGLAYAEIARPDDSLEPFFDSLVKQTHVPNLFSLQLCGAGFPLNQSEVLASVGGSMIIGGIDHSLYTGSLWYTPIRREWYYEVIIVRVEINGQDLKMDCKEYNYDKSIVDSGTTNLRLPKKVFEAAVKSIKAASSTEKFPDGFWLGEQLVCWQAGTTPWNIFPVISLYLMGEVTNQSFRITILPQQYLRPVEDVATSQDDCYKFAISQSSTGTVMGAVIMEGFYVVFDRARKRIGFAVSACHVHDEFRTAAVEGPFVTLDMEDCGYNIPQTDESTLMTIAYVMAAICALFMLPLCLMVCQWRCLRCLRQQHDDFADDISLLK

Compound | IC50 [1, 3] | IC50 [2, 4] | IC50 [1, 5] | further results
CC(=O)NC(Cc1cccc(F)c1)C(O)CNC1CC2(CC(O)C2)Oc2cnccc21 [compound 237, N-((1S,2R)-1-((3-fluorophenyl)methyl)-2-hydroxy-3-(((1r,3R,4′S)-3-hydroxy-3′,4′-dihydrospiro[cyclobutane-1,2′-pyrano[2,3-c]pyridin]-4′-yl)amino)propyl)acetamide] | 6.42 µM | 2.45 µM |  | 
CNc1nc(CC(C)(C)C)cc2c1OC1(CCC1)C[C@@H]2N(C)C[C@@H](O)[C@H](Cc1ccc(F)cc1)NC(=O)[C@@H](C)OC [compound 138] |  | 0.162 µM | 0.178 µM | 
CC(C)(C)Cc1cnc2c(c1)[C@@H](NC[C@@H](O)[C@H](Cc1ccc3c(c1)OCO3)NC(=O)CCl)CC1(CCC1)O2 [compound 309] | 0.0206 µM | 0.04 µM |  | 
COC(=O)C1CC2(C1)CC(NCC(O)C(Cc1ccc(F)cc1)NC(C)=O)c1cc(CC(C)(C)C)cnc1O2 [compound 258, methyl (1r,3S,4′S)-4′-(((2R,3S)-3-(acetylamino)-4-(4-fluorophenyl)-2-hydroxybutyl)amino)-6′-(2,2-dimethylpropyl)-3′,4′-dihydrospiro[cyclobutane-1,2′-pyrano[2,3-b]pyridine]-3-carboxylate] | 0.0389 µM |  |  | IC50 ([2]; HEK cells, cell-based assay, read-out: HEK cell assay (IC50)): 0.0929 µM
COCC(=O)N[C@@H](Cc1ccccc1)[C@H](O)CN[C@H]1CC2(CCC2)Oc2c1cc(CC(C)(C)C)nc2N(C)C [compound 113] |  | 0.497 µM | 0.0265 µM | 
COCC(=O)N[C@@H](Cc1ccc2c(c1)OCO2)[C@H](O)CN[C@H]1CC2(CCC2)Oc2ncc(CCC(F)(F)F)cc21 [compound 195] | 0.754 µM | 0.621 µM |  | 
COCC(=O)N[C@@H](Cc1cccc(F)c1)[C@H](O)CN[C@H]1CC2(CC(F)(F)C2)Oc2ncc(CC(C)(F)F)cc21 [compound 280] | 0.0189 µM | 0.175 µM |  | 
CC(=O)NC(Cc1ccc(F)cc1)C(O)CNC1CC2(CC(C(=O)O)C2)Oc2ncc(CC(C)(C)C)cc21 [compound 263, (1s,3R,4′S)-4′-(((2R,3S)-3-(acetylamino)-4-(4-fluorophenyl)-2-hydroxybutyl)amino)-6′-(2,2-dimethylpropyl)-3′,4′-dihydrospiro[cyclobutane-1,2′-pyrano[2,3-b]pyridine]-3-carboxylic acid] | 0.0107 µM | 0.976 µM |  | 
COCC(=O)NC(Cc1cccc(F)c1)C(O)CNC1CC2(CC(O)C2)Oc2cnccc21 [compound 235, N-((1S,2R)-1-((3-fluorophenyl)methyl)-2-hydroxy-3-(((1s,3S,4′S)-3-hydroxy-3′,4′-dihydrospiro[cyclobutane-1,2′-pyrano[2,3-c]pyridin]-4′-yl)amino)propyl)-2-(methyloxy)acetamide] | 0.581 µM | 0.452 µM |  | 
CO[C@H](C)C(=O)N[C@@H](Cc1cccc(F)c1)[C@H](O)CN[C@H]1CC2(CCC2)Oc2c(-c3ccncc3)cc(CC(C)(C)F)cc21 [compound 564] |  |  |  | IC50 ([1]; BACE enzyme assay, read-out: BACE1 FRET assay): 0.032 µM; IC50 ([2]; Homo sapiens, HEK293, HEK cells, read-out: HEK cell assay): 0.029 µM
COCC(=O)N[C@@H](Cc1ccc2c(c1)OCO2)[C@H](O)CN[C@H]1CC2(CC(F)(F)C2)Oc2ncc(CC(C)(C)C)cc21 [compound 52] |  | 0.103 µM | 0.042 µM | 
CC(C)(C)Cc1cnc2c(c1)[C@@H](NC[C@@H](O)[C@H](Cc1ccc3c(c1)OCO3)NC(=O)[C@H]1CCCO1)CC1(CCC1)O2 [compound 454, (2R)-N-((1S,2R)-1-(1,3-benzodioxol-5-ylmethyl)-3-(((4′S)-6′-(2,2-dimethylpropyl)-3′,4′-dihydrospiro[cyclobutane-1,2′-pyrano[2,3-b]pyridin]-4′-yl)amino)-2-hydroxypropyl)tetrahydro-2-furancarboxamide] |  |  |  | IC50 [1, 6]: 0.02 µM; IC50 [2, 7]: 0.027 µM
CO[C@H](C)C(=O)N[C@@H](Cc1ccc(F)cc1)[C@H](O)CN[C@H]1CC2(CCC2)Oc2cnc(CC(C)(C)F)cc21 [compound 256] | 0.226 µM | 0.274 µM |  | 
CC(=O)N[C@@H](Cc1ccccc1)[C@H](O)CN[C@H]1CC2(CCC2)Oc2c1cc(CC(C)(C)C)nc2N1CCC1 [compound 128] |  | 0.016 µM | 0.0332 µM | 
CC(F)C(=O)N[C@@H](Cc1ccc2c(c1)OCO2)[C@H](O)CN[C@H]1CC2(CCC2)Oc2ncc(CC(C)(C)C)cc21 (stereo partly drawn) [compound 452, N-((1S,2R)-1-(1,3-benzodioxol-5-ylmethyl)-3-(((4′S)-6′-(2,2-dimethylpropyl)-3′,4′-dihydrospiro[cyclobutane-1,2′-pyrano[2,3-b]pyridin]-4′-yl)amino)-2-hydroxypropyl)-2-fluoropropanamide] |  |  |  | IC50 [1, 6]: 0.016 µM; IC50 [2, 7]: 0.039 µM
COCC(=O)N[C@@H](Cc1ccc2c(c1)OCO2)[C@H](O)CN[C@H]1CC2(CCC2)Oc2c1cc(CC(C)(C)C)nc2N1CCCC1 [compound 130] |  | 0.055 µM | 0.0541 µM | 
CC(=O)N[C@@H](Cc1ccc2c(c1)OCO2)[C@H](O)CN[C@H]1CC2(CCC2)Oc2c1cc(CC(C)(C)C)nc2Cl [compound 124] |  | 0.114 µM | 0.0286 µM | 
CC(C)(C)Cc1cnc2c(c1)C(NCC(O)C(Cc1ccc(F)cc1)NC(=O)CF)CC1(CC(O)C1)O2 [compound 230, N-((1S,2R)-3-(((1s,3S,4′S)-6′-(2,2-dimethylpropyl)-3-hydroxy-3′,4′-dihydrospiro[cyclobutane-1,2′-pyrano[2,3-b]pyridin]-4′-yl)amino)-1-((4-fluorophenyl)methyl)-2-hydroxypropyl)-2-fluoroacetamide] | 0.00424 µM | 0.01 µM |  | 
COC(C)C(=O)NC(Cc1cc(F)c2c(c1)OCO2)C(O)CNC1CC2(CCC2)Oc2ncc(CC(C)(C)C)cc21 (stereo not shown) [compound 300] | 0.0571 µM | 0.137 µM |  | 

Compound | IC50 [1, 3] | IC50 [2, 4] | IC50 [1, 5] | further results
CC(C)(C)Cc1cnc2c(c1)[C@@H](NC[C@@H](O)[C@H](Cc1ccc(F)c(OC(F)(F)F)c1)NC(=O)C(F)(F)F)CC1(CCC1)O2 [compound 82] |  | 0.523 µM | 0.00283 µM | 
COC(C)C(=O)NC(Cc1ccc(F)cc1)C(O)CNC1CC2(CCC2)Oc2ncc(CC(C)(C)C)cc21 [compound 154, (2R)—N-((1S,2R)-3-(((4′S)-6′-(2,2-dimethylpropyl)-3′,4-dihydrospiro[cyclobutane-1,2′-pyrano[2,3-b]pyridin]-4′-yl)amino)-1-((4-fluorophenyl)methyl)-2-hydroxypropyl)-2-(methyloxy)propanamide] |  | 0.028 µM | 0.0132 µM | 
COCC(=O)N[C@@H](Cc1ccccc1)[C@H](O)CN[C@H]1CC2(CCC2)Oc2ncc([C@H](F)C(C)(C)C)cc21 [compound 356] |  |  |  | IC50 [1, 8]: 0.00317 µM; IC50 [2, 9]: 0.00646 µM
COCC(=O)N[C@@H](Cc1ccc(F)cc1)[C@H](O)CN[C@H]1CC2(CCC2)Oc2c1cc(CC(C)(C)C)nc2C [compound 153] |  | 0.153 µM | 0.2 µM | 
CC(=O)N[C@@H](Cc1ccc(F)cc1)[C@H](O)CN[C@H]1CC2(CCC2)Oc2c(F)cc(CC(C)(C)C)cc21 [compound 174] |  | 0.0526 µM | 0.0072 µM | 
COCC(=O)N[C@@H](Cc1cc(Br)c2c(c1)OCO2)[C@H](O)CN[C@H]1CC2(CCC2)Oc2ncc(CC(C)(C)F)cc21 [compound 211] | 0.423 µM | 0.312 µM |  | 
CO[C@H](C)C(=O)N[C@@H](Cc1cccc(F)c1)[C@H](O)CN[C@H]1CC2(CCC2)Oc2ncc(CC(F)(F)F)cc21 [compound 344] |  |  |  | IC50 [1, 8]: 0.00894 µM; IC50 [2, 9]: 0.0442 µM
COCC(=O)N[C@@H](Cc1ccc(F)c(OC(F)F)c1)[C@H](O)CN[C@H]1CC2(CCC2)Oc2ncc(CC(C)(C)C)cc21 [compound 214] | 0.00877 µM | 0.00903 µM |  | 
CC(C)(C)[C@@H](F)c1cnc2c(c1)[C@@H](NC[C@@H](O)[C@H](Cc1ccc3c(c1)OCO3)NC(=O)CF)CC1(CCC1)O2 [compound 185] |  | 0.0264 µM | 0.0185 µM | 
COCC(=O)N[C@@H](Cc1ccnc(C(F)(F)F)c1)[C@H](O)CN[C@H]1CC2(CCC2)Oc2ncc(CC(C)(C)C)cc21 [compound 163] |  | 0.0359 µM | 0.0269 µM | 
CC(=O)N[C@@H](Cc1ccc(F)cc1)[C@H](O)CN[C@H]1CC2(CCC2)C(F)(F)c2ncc(CC(C)(C)C)cc21 [compound 165] |  | 0.109 µM | 0.107 µM | 
CC(=O)N[C@@H](Cc1ccc(F)cc1)[C@H](O)CN[C@H]1CC2(CCC2)Oc2ncc(CC(C)(C)C(F)F)cc21 [compound 159] |  | 0.0363 µM | 0.0192 µM | 
CO[C@H](C)C(=O)N[C@@H](Cc1cccc(C#N)c1)[C@H](O)CN[C@H]1CC2(CCC2)Oc2ncc(CC(C)(C)C)cc21 [compound 56] |  | 0.00305 µM | 0.00263 µM | 
CC(=O)N[C@@H](Cc1cc(Br)c2c(c1)OCO2)[C@H](O)CN[C@H]1CC2(CCC2)Oc2ncc(CC(C)(C)C)cc21 [compound 203] | 0.00284 µM | 0.0211 µM |  | 
COCC(=O)N[C@@H](Cc1ccccc1)[C@H](O)CNC1CC2(CC(F)(F)C2)Oc2ncc(CC(C)(C)C)cc21 (stereo partly shown) [compound 54] |  | 0.066 µM | 0.003 µM | 
CO[C@H](C)C(=O)N[C@@H](Cc1cccc(C#N)c1)[C@H](O)CN[C@H]1CC2(CCC2)Oc2ncc(CC(C)(C)F)cc21 [compound 58] |  | 0.00678 µM | 0.00575 µM | 
CO[C@H](C)C(=O)N[C@@H](Cc1cccc(F)c1)[C@H](O)CN[C@H]1CC2(CCC2)Oc2c(F)cc(CC(C)(C)C)cc21 [compound 222] | 0.00445 µM | 0.0127 µM |  | 
CO[C@H](C)C(=O)N[C@@H](Cc1ccc2c(c1)OCO2)[C@H](O)CN[C@H]1CC2(CCC2)Oc2ncc(C[C@@H](C)C(F)(F)F)cc21 [compound 342] |  |  |  | IC50 [1, 8]: 0.175 µM; IC50 [2, 9]: 0.343 µM
COCC(=O)NC(Cc1ccc2c(c1)OCO2)C(O)CNC1CC2(CC(O)C2)Oc2cnccc21 [compound 242, N-((1S,2R)-1-(1,3-benzodioxol-5-ylmethyl)-2-hydroxy-3-(((1s,3S,4′S)-3-hydroxy-3′,4′-dihydrospiro[cyclobutane-1,2′-pyrano[2,3-c]pyridin]-4′-yl)amino)propyl)-2-(methyloxy)acetamide] | 23.9 µM | 1.16 µM |  | 
